The results in this text go back to patent publication US20230406831A1, “COMPOUNDS AND METHODS OF INHIBITING BACTERIAL CHAPERONIN SYSTEMS” (THE TRUSTEES OF INDIANA UNIVERSITY, priority 2020, published 2023).

What is called IC50 is the concentration at which inhibition is half-maximal.

Structures are written as SMILES.

T1 sequence (P0A6F5 2-548): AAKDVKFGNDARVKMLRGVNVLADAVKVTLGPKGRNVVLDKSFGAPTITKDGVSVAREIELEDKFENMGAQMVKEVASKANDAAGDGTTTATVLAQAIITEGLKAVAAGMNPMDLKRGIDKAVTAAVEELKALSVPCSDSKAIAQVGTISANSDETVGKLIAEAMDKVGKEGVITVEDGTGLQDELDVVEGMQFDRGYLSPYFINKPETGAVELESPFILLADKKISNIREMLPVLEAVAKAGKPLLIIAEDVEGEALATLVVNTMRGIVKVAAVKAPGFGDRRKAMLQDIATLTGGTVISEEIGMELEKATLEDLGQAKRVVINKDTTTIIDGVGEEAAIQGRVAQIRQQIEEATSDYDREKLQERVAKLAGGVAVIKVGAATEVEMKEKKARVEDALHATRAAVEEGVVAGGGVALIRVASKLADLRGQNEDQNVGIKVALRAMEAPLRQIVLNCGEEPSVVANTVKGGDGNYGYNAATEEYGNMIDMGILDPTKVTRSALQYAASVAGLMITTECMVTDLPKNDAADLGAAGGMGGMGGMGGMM

This experiment concerns the target T1, GroEL/ES (Escherichia coli, UniProt P0A6F5).
T1 construct: made in house; host or cells: GroEL in E. coli DH5a; GroES in E. coli BL21 (DE3)
The experiment can be described thus: GroEL/ES-mediated dMDH refolding assay. It counts as biochemical, E. coli. The procedure: Evaluation of compounds ability to inhibit GroEL/ES and HSP60/10-mediated dMDH refolding assays.
Reagent preparation: For these assays, four primary reagent stocks were prepared: 1) GroEL/ES-dMDH or HSP60/10-dMDH binary complex stock; 2) ATP initiation stock; 3) EDTA quench stock; 4) MDH enzymatic assay stock. Denatured MDH (dMDH) was prepared by 2-fold dilution of MDH (5 mg/ml, soluble pig heart MDH from Roche, product #10127248001) with denaturant buffer (7 M guanidine-HCl, 200 mM Tris, pH 7.4, and 50 mM DTT). MDH was completely denatured by incubating at room temperature for 45 min. The binary complex solutions were prepared by slowly adding the dMDH stock to a stirring stock with GroEL (or HSP60) in folding buffer (50 mM Tris-HCl, pH 7.4, 50 mM KCl, 10 mM MglC2, and 1 mM DTT), followed by addition of GroES (or HSP10). The binary complex stocks were prepared immediately prior to dispensing into the assay plates and had final protein concentrations of 83.3 nM GroEL (Mr 800 kDa) or HSP60 (Mr 400 kDa), 100 nM GroES or HSP10 (Mr 70 kDa), and 20 nM dMDH in folding buffer. For the ATP initiation stock, ATP solid was diluted into folding buffer to a final concentration of 2.5 mM. Quench solution contained 600 mM EDTA (pH 8.0). The MDH enzymatic assay stock consisted of 20 mM sodium mesoxalate and 2.4 mM NADH in reaction buffer (50 mM Tris-HCl, pH 7.4, 50 mM KC1, and 1 mM DTT).
Assay Protocol: First, 30 μL aliquots of the GroEL/ES-dMDH or HSP60/10-dMDH binary complex stocks were dispensed into clear, 384-well polystyrene plates. Next, 0.5 μL of the compound stocks (10 mM to 4.6 μM, 3-fold dilutions series in DMSO) were added by pin-transfer (V&P Scientific). The chaperonin-mediated refolding cycles were initiated by addition of 20 IA of ATP stock (reagent concentrations during refolding cycle: 50 nM GroEL or HSP60, 60 nM GroES or HSP10, 12 nM dMDH, 1 mM ATP, and compounds of 100 μM to 46 nM, 3-fold dilution series). The refolding reactions were incubated at 37° C. The incubation time was determined from refolding time-course control experiments until they reached ˜90% completion of refolding cycle — generally ˜20-40 min for GroEL/ES, and ˜40-60 min for HSP60/10). Next, the assay was quenched by addition of 10 μL of the EDTA to final concentration of 100 mM. […] A340 nm measurements were recorded at 0.5 minutes (start point) and at successive time points until the amount of NADH consumed reached ˜90% (end point, generally between 20-35 minutes). The differences between the start and end point A340 values were used to calculate the % inhibition of the GroEL/ES or HSP60/10 machinery by the compounds. IC50 values for the test compounds were obtained by plotting the % inhibition results in GraphPad Prism 6 and analyzing by non-linear regression using the log (inhibitor) vs. response (variable slope) equation. Results presented represent the averages of IC50 values obtained from at least quadriplicate (duplicate of duplicate) replicates. For results, see Tables 1, 2, and 3.
Compound `O=C(Nc1ccc(Sc2nc3ccccc3s2)c(Cl)c1)c1cc(Br)cc(Br)c1O` [Compound 1, reference compound] had an IC50 of 2 µM. `COc1c(Br)cc(Br)cc1C(=O)Nc1cc(Cl)c(C(C#N)c2ccc(Cl)cc2)cc1C` (centres unmarked) [Compound 45, 3,5-dibromo-N-(5-chloro-4-((4-chlorophenyl)(cyano)methyl)-2-methylphenyl)-2-methoxybenzamide] registered a half-maximal inhibitory concentration (IC50) of 30 µM.

For the compound `Cc1cc(C(C#N)c2ccc(Cl)cc2)c(Cl)cc1NC(=O)c1cc(Br)cc(Br)c1O` (centres unmarked) [Compound 46, 3,5-dibromo-N-(5-chloro-4-((4-chlorophenyl)(cyano)methyl)-2-methylphenyl)-2-hydroxybenzamide], the IC50 was 1.9 µM.

Compound `COc1c(Br)cccc1C(=O)Nc1cc(Cl)c(C(C#N)c2ccc(Cl)cc2)cc1C` (centres unmarked) [Compound 47, 3-bromo-N-(5-chloro-4-((4-chlorophenyl)(cyano)methyl)-2-methylphenyl)-2-methoxybenzamide] displayed an IC50 of 49 µM. Compound `Cc1cc(C(C#N)c2ccc(Cl)cc2)c(Cl)cc1NC(=O)c1cccc(Br)c1O` (centres unmarked) [Compound 48, 3-bromo-N-(5-chloro-4-((4-chlorophenyl)(cyano)methyl)-2-methylphenyl)-2-hydroxybenzamide] had an IC50 of 12 µM. For `COc1ccc(Br)cc1C(=O)Nc1cc(Cl)c(C(C#N)c2ccc(Cl)cc2)cc1C` (centres unmarked) [Compound 49, 5-bromo-N-(5-chloro-4-((4-chlorophenyl)(cyano)methyl)-2-methylphenyl)-2-methoxybenzamide], inhibition was half-maximal at 71 µM (IC50).

Consider `Cc1cc(C(C#N)c2ccc(Cl)cc2)c(Cl)cc1NC(=O)c1cc(Br)ccc1O` (centres unmarked) [Compound 50, 5-bromo-N-(5-chloro-4-((4-chlorophenyl)(cyano)methyl)-2-methylphenyl)-2-hydroxybenzamide], for which the midpoint of inhibition, the IC50, lay at 23 µM. `COc1c(Cl)cc(Cl)cc1C(=O)Nc1cc(Cl)c(C(C#N)c2ccc(Cl)cc2)cc1C` (centres unmarked) [Compound 51, 3,5-dichloro-N-(5-chloro-4-((4-chlorophenyl)(cyano)methyl)-2-methylphenyl)-2-methoxybenzamide] had an IC50 of 38 µM. `Cc1cc(C(C#N)c2ccc(Cl)cc2)c(Cl)cc1NC(=O)c1cc(Cl)cc(Cl)c1O` (centres unmarked) [Compound 52, 3,5-dichloro-N-(5-chloro-4-((4-chlorophenyl)(cyano)methyl)-2-methylphenyl)-2-hydroxybenzamide] yielded an IC50 of 3.7 µM.

For `COc1c(Cl)cccc1C(=O)Nc1cc(Cl)c(C(C#N)c2ccc(Cl)cc2)cc1C` (centres unmarked) [Compound 53, 3-chloro-N-(5-chloro-4-((4-chlorophenyl)(cyano)methyl)-2-methylphenyl)-2-methoxybenzamide], it took 81 µM to reach half-maximal inhibition (IC50). The compound `Cc1cc(C(C#N)c2ccc(Cl)cc2)c(Cl)cc1NC(=O)c1cccc(Cl)c1O` (centres unmarked) [Compound 54, 3-chloro-N-(5-chloro-4-((4-chlorophenyl)(cyano)methyl)-2-methylphenyl)-2-hydroxybenzamide] had an IC50 of 14 µM. To `COc1cc(Cl)ccc1C(=O)Nc1cc(Cl)c(C(C#N)c2ccc(Cl)cc2)cc1C` (centres unmarked) [Compound 55, 4-chloro-N-(5-chloro-4-((4-chlorophenyl)(cyano)methyl)-2-methylphenyl)-2-methoxybenzamide] belongs 59 µM; to `Cc1cc(C(C#N)c2ccc(Cl)cc2)c(Cl)cc1NC(=O)c1ccc(Cl)cc1O` (centres unmarked) [Compound 56, 4-chloro-N-(5-chloro-4-((4-chlorophenyl)(cyano)methyl)-2-methylphenyl)-2-hydroxybenzamide], 57 µM. In turn, `COc1ccc(Cl)cc1C(=O)Nc1cc(Cl)c(C(C#N)c2ccc(Cl)cc2)cc1C` (centres unmarked) [Compound 57, 5-chloro-N-(5-chloro-4-((4-chlorophenyl)(cyano)methyl)-2-methylphenyl)-2-methoxybenzamide] showed an IC50 of 59 µM. `Cc1cc(C(C#N)c2ccc(Cl)cc2)c(Cl)cc1NC(=O)c1cc(Cl)ccc1O` (centres unmarked) [Compound 58, 5-chloro-N-(5-chloro-4-((4-chlorophenyl)(cyano)methyl)-2-methylphenyl)-2-hydroxybenzamide] yielded an IC50 of 24 µM.

On to `COc1ccc(C)cc1C(=O)Nc1cc(Cl)c(C(C#N)c2ccc(Cl)cc2)cc1C` (centres unmarked) [Compound 59, N-(5-chloro-4-((4-chlorophenyl)(cyano)methyl)-2-methylphenyl)-2-methoxy-5-methylbenzamide], for which the IC50 came to 86 µM. In turn, `Cc1ccc(O)c(C(=O)Nc2cc(Cl)c(C(C#N)c3ccc(Cl)cc3)cc2C)c1` (centres unmarked) [Compound 60, N-(5-chloro-4-((4-chlorophenyl)(cyano)methyl)-2-methylphenyl)-2-hydroxy-5-methylbenzamide] registered an IC50 of 41 µM.

The compound `COc1ccccc1C(=O)Nc1cc(Cl)c(C(C#N)c2ccc(Cl)cc2)cc1C` (centres unmarked) [Compound 61, N-(5-chloro-4-((4-chlorophenyl)(cyano)methyl)-2-methylphenyl)-2-methoxybenzamide] gave an IC50 of 72 µM. To `COc1cccc(C(=O)Nc2cc(Cl)c(C(C#N)c3ccc(Cl)cc3)cc2C)c1` (centres unmarked) [Compound 62, N-(5-chloro-4-((4-chlorophenyl)(cyano)methyl)-2-methylphenyl)-3-methoxybenzamide] belongs 67 µM. To `COc1ccc(C(=O)Nc2cc(Cl)c(C(C#N)c3ccc(Cl)cc3)cc2C)cc1` (centres unmarked) [Compound 63, N-(5-chloro-4-((4-chlorophenyl)(cyano)methyl)-2-methylphenyl)-4-methoxybenzamide] belongs 65 µM.

The compound `Cc1cc(C(C#N)c2ccc(Cl)cc2)c(Cl)cc1NC(=O)c1ccccc1O` (centres unmarked) [Compound 64, N-(5-chloro-4-((4-chlorophenyl)(cyano)methyl)-2-methylphenyl)-2-hydroxybenzamide] displayed an IC50 of 33 µM.

`Cc1cc(C(C#N)c2ccc(Cl)cc2)c(Cl)cc1NC(=O)c1cccc(O)c1` (centres unmarked) [Compound 65, N-(5-chloro-4-((4-chlorophenyl)(cyano)methyl)-2-methylphenyl)-3-hydroxybenzamide] came in with an IC50 of 55 µM. `Cc1cc(C(C#N)c2ccc(Cl)cc2)c(Cl)cc1NC(=O)c1ccc(O)cc1` (centres unmarked) [Compound 66, N-(5-chloro-4-((4-chlorophenyl)(cyano)methyl)-2-methylphenyl)-4-hydroxybenzamide] registered an IC50 of 47 µM.

For the compound `Cc1cc(C(C#N)c2ccc(Cl)cc2)c(Cl)cc1NC(=O)c1ccccc1[N+](=O)[O-]` (centres unmarked) [Compound 67, N-(5-chloro-4-((4-chlorophenyl)(cyano)methyl)-2-methylphenyl)-2-nitrobenzamide], it took 43 µM to reach half-maximal inhibition (IC50). The value for `Cc1cc(C(C#N)c2ccc(Cl)cc2)c(Cl)cc1NC(=O)c1cccc([N+](=O)[O-])c1` (centres unmarked) [Compound 68, N-(5-chloro-4-((4-chlorophenyl)(cyano)methyl)-2-methylphenyl)-3-nitrobenzamide] was 43 µM; that for `Cc1cc(C(C#N)c2ccc(Cl)cc2)c(Cl)cc1NC(=O)c1ccc([N+](=O)[O-])cc1` (centres unmarked) [Compound 69, N-(5-chloro-4-((4-chlorophenyl)(cyano)methyl)-2-methylphenyl)-4-nitrobenzamide] was 37 µM. In turn, `Cc1cc(C(C#N)c2ccc(Cl)cc2)c(Cl)cc1NC(=O)c1ccccc1N` (centres unmarked) [Compound 70, 2-amino-N-(5-chloro-4-((4-chlorophenyl)(cyano)methyl)-2-methylphenyl)benzamide] yielded an IC50 of 44 µM. Consider `Cc1cc(C(C#N)c2ccc(Cl)cc2)c(Cl)cc1NC(=O)c1cccc(N)c1` (centres unmarked) [Compound 71, 3-amino-N-(5-chloro-4-((4-chlorophenyl)(cyano)methyl)-2-methylphenyl)benzamide], for which 51 µM corresponded to half-maximal inhibition (IC50). `Cc1cc(C(C#N)c2ccc(Cl)cc2)c(Cl)cc1NC(=O)c1ccc(N)cc1` (centres unmarked) [Compound 72, 4-amino-N-(5-chloro-4-((4-chlorophenyl)(cyano)methyl)-2-methylphenyl)benzamide] returned an IC50 of 47 µM.
